{
  "source": "paper PMC12756723",
  "about": "“Derivatives of the Cashew Nut Shell Liquid as Ligands of Pseudomonas aeruginosa Phenazine Protein D (PaPhzD)” (ACS Omega, 2025)",
  "target": "T1, PaPhzD (Pseudomonas aeruginosa, UniProt P0DPB9)",
  "T1 construct": "inferred from Ni-NTA purification with imidazole elution; made in house; host or cells: E. coli BL21(DE3)",
  "T1 sequence (P0DPB9 whole entry)": "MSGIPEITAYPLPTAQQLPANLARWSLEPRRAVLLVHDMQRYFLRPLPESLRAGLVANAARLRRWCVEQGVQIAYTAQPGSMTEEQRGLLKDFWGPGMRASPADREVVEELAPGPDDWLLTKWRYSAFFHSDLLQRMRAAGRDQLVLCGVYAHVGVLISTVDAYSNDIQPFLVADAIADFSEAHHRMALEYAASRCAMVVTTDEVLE",
  "test": "Thermal shift assay (TSA) with SYPRO Orange",
  "format": "binding",
  "procedure": "Thermal shift assays were performed on an Applied Biosystems 7500 RT-PCR (Applied Biosystems, Foster City, CA USA). All experiments were carried out in triplicate with 1 °C per minute increments in temperatures that range from 25 to 85 °C in 96-well PCR plates (PCR plates 96-well, BioRad), sealed with transparent capping strips (Flatcap strips, BioRad). The fluorescence of SYPRO Orange (Invitrogen S6650) was monitored (excitation wavelength, 492 nm; emission wavelength, 610 nm). Before the compounds’ screening, protein and DMSO concentrations were evaluated to improve PaPhzD stability throughout the assay.\nThe protein concentration required for an optimal signal-to-noise ratio (>5-fold) was evaluated by analysis of the raw fluorescence curves at different PaPhzD concentrations (1–5 μM). Then, the effect of DMSO (0–10%) over PaPhzD T m was evaluated at the optimal protein concentration. Fluorescence raw data were recorded using Applied Biosystems 7500 Software v2.0 and then processed with NAMI software to calculate T m values by the first-derivative method.\nLDT compounds were screened at a final concentration of 50 μM. Briefly, 1 μL of each compound (1 mM DMSO stock solution) was added to a mixed solution containing 5 μM PaPhzD diluted in 50 mM Tris–HCl buffer (pH 8.0) containing 100 mM NaCl, 1 mM DTT, and SYPRO Orange dye (Invitrogen S6650) (1:100 dilution). Each compound was assayed in triplicate, and ΔT m values were calculated by comparison to reference wells that had 1 μL DMSO instead of the LDT compounds. Differences between T m values (ΔT m) were considered statistically significant when p < 0.01, according to the one-way ANOVA followed by Dunnett’s post-test for multiple comparisons, available in GraphPad Prism 9.0 software (GraphPad Software, San Diego, CA, USA, www.graphpad.com).\nCompounds with ΔT m values statistically different from the reference were also assayed at different concentrations (ranging from 6.25 to 100 μM) to evaluate the concentration–response behavior. The ΔT m versus concentration plots were generated using the nonlinear regression method available in GraphPad Prism version 9.0.",
  "data": [
    {"smiles": "CCCCCCCCCCCCCCCc1cccc(O)c1", "note": "[Compound 2]", "values": [
      {"measurement": "ΔTm of PaPhzD", "setting": "50 μM compound, 5 μM PaPhzD, vs DMSO reference", "result": "−3.8", "unit": "°C"},
      {"measurement": "Concentration–response behavior of ΔTm", "setting": "6.25 to 100 μM", "result": "clear concentration–response behavior"}
    ]}
  ]
}
